Results on 27 molecules are retold here after patent publication US12630528B2, “Amino aryl derivative useful as diacylglycerol acyltransferase 2 inhibitor and use thereof” (LG CHEM, LTD., priority 2019, dated 2026).

Each structure is given as a SMILES string. Some results are limits rather than exact numbers.

The experiment deals with T1, human DGAT2 (Homo sapiens, UniProt Q96PD7).
T1 construct: FLAG (DYKDDDDK); made in house; host or cells: Sf-21 insect cells (BacPAK baculovirus system); membrane fraction used
T1 sequence (Q96PD7 1-388): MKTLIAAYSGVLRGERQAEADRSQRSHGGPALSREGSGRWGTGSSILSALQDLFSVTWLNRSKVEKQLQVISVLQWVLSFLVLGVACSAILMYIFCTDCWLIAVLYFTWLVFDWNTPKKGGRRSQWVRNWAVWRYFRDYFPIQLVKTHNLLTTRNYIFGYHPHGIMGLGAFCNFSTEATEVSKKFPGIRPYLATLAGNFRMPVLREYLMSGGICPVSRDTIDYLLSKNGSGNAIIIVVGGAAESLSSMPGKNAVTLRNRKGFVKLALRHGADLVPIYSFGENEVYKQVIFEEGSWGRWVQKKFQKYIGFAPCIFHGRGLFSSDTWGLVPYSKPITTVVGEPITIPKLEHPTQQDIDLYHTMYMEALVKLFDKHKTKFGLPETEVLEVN
Nature of the experiment: DGAT2 enzyme activity inhibition, Phospholipid FlashPlate SPA. The experiment is classed as biochemical. The settings on record: recombinant human DGAT2 membrane protein from Sf-21 cells; inhibition of [14C]-TG production; 37° C. The essentials: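 Sf-21 membranes expressing recombinant human DGAT2 (2 μg) preincubated with compound (3 nM–10 μM, 1% DMSO) and 50 μM 1,2 sn-oleoyl glycerol, 20 min at 37 °C, then 1 μM [14C]oleoyl-CoA for 15 min. [14C]-TG counted by SPA; inhibition as % of untreated.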
By IC50 is commonly meant the concentration that gives 50% inhibition. Turning to `CCOc1ccccc1O[C@@H]1CCCN(c2cncc(Nc3ccc(F)c(-c4cccc(CC(C)(C)C(=O)O)c4)n3)n2)C1` [Example 102, (R)-3-(3-(6-((6-(3-(2-ethoxyphenoxy)piperidin-1-yl)pyrazin-2-yl)amino)-3-fluoropyridin-2-yl)phenyl)-2,2-dimethylpropanoic Acid], the IC50 is 140 nM.

On to `CCOc1cccnc1O[C@@H]1CCCN(c2cncc(Nc3ccc(F)c(-c4cccc(CC(C)(C)C(=O)O)c4)n3)n2)C1` [Example 103, (R)-3-(3-(6-((6-(3-((3-ethoxypyridin-2-yl)oxy)piperidin-1-yl)pyrazin-2-yl)amino)-3-fluoropyridin-2-yl)phenyl)-2,2-dimethylpropanoic Acid], for which the IC50 worked out at 300 nM.

Take `CCOc1cccnc1O[C@@H]1CCCN(c2cncc(Nc3nc(-c4cccc(OC(C)(C)C(=O)O)c4)ccc3F)n2)C1` [Example 104, (R)-2-(3-(6-((6-(3-((3-ethoxypyridin-2-yl)oxy)piperidin-1-yl)pyrazin-2-yl)amino)-5-fluoropyridin-2-yl)phenoxy)-2-methylpropanoic Acid]: the IC50 is 170 nM.

As to `CCOc1cccnc1O[C@@H]1CCCN(c2cncc(Nc3ccc(F)c(-c4cccc(OC(C)(C)C(=O)O)c4)n3)n2)C1` [Example 105, (R)-2-(3-(6-((6-(3-((3-ethoxypyridin-2-yl)oxy)piperidin-1-yl)pyrazin-2-yl)amino)-3-fluoropyridin-2-yl)phenoxy)-2-methylpropanoic Acid], the IC50 is 500 nM.

Turning to `CCOc1cccnc1O[C@@H]1CCCN(c2cncc(Nc3ccc(F)c(-c4cc(CC(C)(C)C(=O)O)ccc4F)n3)n2)C1` [Example 106, (R)-3-(3-(6-((6-(3-((3-ethoxypyridin-2-yl)oxy)piperidin-1-yl)pyrazin-2-yl)amino)-3-fluoropyridin-2-yl)-4-fluorophenyl)-2,2-dimethylpropanoic Acid], the IC50 turned out to be 490 nM.

With `CCOc1ccccc1O[C@@H]1CCCN(c2cncc(Nc3nc(-c4cc(CC(C)(C)C(=O)O)ccc4F)ccc3F)n2)C1` [Example 107, (R)-3-(3-(6-((6-(3-(2-ethoxyphenoxy)piperidin-1-yl)pyrazin-2-yl)amino)-5-fluoropyridin-2-yl)-4-fluorophenyl)-2,2-dimethylpropanoic Acid], the IC50 worked out at 260 nM.

`CCOc1cccnc1O[C@@H]1CCCN(c2cncc(Nc3nc(-c4cc(CC(C)(C)C(=O)O)ccc4F)ccc3F)n2)C1` [Example 108, (R)-3-(3-(6-((6-(3-((3-ethoxypyridin-2-yl)oxy)piperidin-1-yl)pyrazin-2-yl)amino)-5-fluoropyridin-2-yl)-4-fluorophenyl)-2,2-dimethylpropanoic Acid]: the IC50 amounted to 350 nM.

As for `CCOc1ccccc1O[C@@H]1CCCN(c2cncc(Nc3ccc(C(F)(F)F)c(-c4ccc(C(C)(C)C(=O)O)cc4)n3)n2)C1` [Example 109, (R)-2-(4-(6-((6-(3-(2-ethoxyphenoxy)piperidin-1-yl)pyrazin-2-yl)amino)-3-(trifluoromethyl)pyridin-2-yl)phenyl)-2-methylpropanoic Acid], the IC50 is 1500 nM.

In the case of `CCOc1ccccc1O[C@@H]1CCCN(c2cncc(Nc3cc(C(F)(F)F)cc(-c4cccc(CC(C)(C)C(=O)O)c4)n3)n2)C1` [Example 110, (R)-3-(3-(6-((6-(3-(2-ethoxyphenoxy)piperidin-1-yl)pyrazin-2-yl)amino)-4-(trifluoromethyl)pyridin-2-yl)phenyl)-2,2-dimethylpropanoic Acid], the IC50 came out at 170 nM.

Consider `CCOc1ccccc1O[C@@H]1CCCN(c2cncc(Nc3ccc(C)c(-c4cccc(CC(C)(C)C(=O)O)c4)n3)n2)C1` [Example 111, (R)-3-(3-(6-((6-(3-(2-ethoxyphenoxy)piperidin-1-yl)pyrazin-2-yl)amino)-3-methylpyridin-2-yl)phenyl)-2,2-dimethylpropanoic Acid], for which the IC50 is 2200 nM.

On to `CCOc1ccccc1O[C@@H]1CCCN(c2cncc(Nc3cncc(-c4cccc(CC(C)(C)C(=O)O)c4)n3)n2)C1` [Example 112, (R)-3-(3-(6-((6-(3-(2-ethoxyphenoxy)piperidin-1-yl)pyrazin-2-yl)amino)pyrazin-2-yl)phenyl)-2,2-dimethylpropanoic Acid], for which the IC50 was found to be 200 nM.

With `CCOc1ccccc1O[C@@H]1CCCN(c2cncc(Nc3ncc(C(=O)O)cn3)n2)C1` [Example 114, (R)-2-((6-(3-(2-ethoxyphenoxy)piperidin-1-yl)pyrazin-2-yl)amino)pyrimidine-5-carboxylic Acid], the IC50 is over 10000 nM.

Consider `CCOc1cccnc1O[C@@H]1CCCN(c2ccnc(Nc3nccc(C(C)(C)C(=O)O)n3)n2)C1` [Example 116], for which the IC50 is 410 nM.

Consider `CCOc1ccccc1O[C@@H]1CCCN(c2cncc(Nc3nccc(N4CCC[C@H]4C(=O)O)n3)n2)C1` [Example 117, (2-((6-((R)-3-(2-ethoxyphenoxy)piperidin-1-yl)pyrazin-2-yl)amino)pyrimidin-4-yl)-L-proline], for which the IC50 is over 10000 nM.

Regarding `CCOc1ccccc1O[C@@H]1CCCN(c2cncc(Nc3nccc(N4CCC(C(=O)O)C4)n3)n2)C1` (stereo partly drawn) [Example 118, 1-(2-((6-((R)-3-(2-ethoxyphenoxy)piperidin-1-yl)pyrazin-2-yl)amino)pyrimidin-4-yl)pyrrolidine-3-carboxylic Acid], the IC50 came to 2000 nM.

Turning to `CCOc1ccccc1O[C@@H]1CCCN(c2cncc(Nc3nccc(N4CCCC(C(=O)O)C4)n3)n2)C1` (stereo partly drawn) [Example 120, 1-(2-((6-((R)-3-(2-ethoxyphenoxy)piperidin-1-yl)pyrazin-2-yl)amino)pyrimidin-4-yl)piperidine-3-carboxylic Acid], the IC50 was determined as 890 nM.

As to `CCOc1ccccc1O[C@@H]1CCCN(c2cncc(Nc3nccc(N4CCC[C@@H](C(=O)O)C4)n3)n2)C1` [Example 121, (R)-1-(2-((6-((R)-3-(2-ethoxyphenoxy)piperidin-1-yl)pyrazin-2-yl)amino)pyrimidin-4-yl)piperidine-3-carboxylic Acid], the IC50 turned out to be 590 nM.

For the molecule `CCOc1ccccc1O[C@@H]1CCCN(c2cncc(Nc3nccc(N4CCCC(C)(C(=O)O)C4)n3)n2)C1` (stereo partly drawn) [Example 122, 1-(2-((6-((R)-3-(2-ethoxyphenoxy)piperidin-1-yl)pyrazin-2-yl)amino)pyrimidin-4-yl)-3-methylpiperidine-3-carboxylic Acid], the IC50 is 6100 nM.

Regarding `CCOc1ccccc1O[C@@H]1CCCN(c2cncc(Nc3nccc(N4CCC(C(=O)O)CC4)n3)n2)C1` [Example 123, (R)-1-(2-((6-(3-(2-ethoxyphenoxy)piperidin-1-yl)pyrazin-2-yl)amino)pyrimidin-4-yl)piperidine-4-carboxylic Acid], the IC50 was 5500 nM.

With `CCOc1ccccc1O[C@@H]1CCCN(c2cncc(Nc3nccc(C4CC5CC4CC5C(=O)O)n3)n2)C1` (stereo partly drawn) [Example 124, 5-(2-((6-((R)-3-(2-ethoxyphenoxy)piperidin-1-yl)pyrazin-2-yl)amino)pyrimidin-4-yl)bicyclo[2.2.1]heptane-2-carboxylic Acid], the IC50 amounted to 340 nM.

For `CCOc1ccccc1O[C@@H]1CCCN(c2cncc(Nc3nccc(N4CCC(CC(=O)O)CC4)n3)n2)C1` [Example 125, (R)-2-(1-(2-((6-(3-(2-ethoxyphenoxy)piperidin-1-yl)pyrazin-2-yl)amino)pyrimidin-4-yl)piperidin-4-yl)acetic Acid], the IC50 turned out to be 1800 nM.

With `CCOc1ccccc1O[C@@H]1CCCN(c2cncc(Nc3nccc(N4CCC(C(C)(C)C(=O)O)CC4)n3)n2)C1` [Example 126, (R)-2-(1-(2-((6-(3-(2-ethoxyphenoxy)piperidin-1-yl)pyrazin-2-yl)amino)pyrimidin-4-yl)piperidin-4-yl)-2-methylpropanoic Acid], the IC50 turned out to be 800 nM.

For `CCOc1ccccc1O[C@@H]1CCCN(c2cncc(Nc3nccc(N4CCN(CC(=O)O)CC4)n3)n2)C1` [Example 127, (R)-2-(4-(2-((6-(3-(2-ethoxyphenoxy)piperidin-1-yl)pyrazin-2-yl)amino)pyrimidin-4-yl)piperazin-1-yl)acetic Acid], the 50% inhibitory concentration (IC50) stood at 2900 nM.

Turning to `CCOc1ccccc1O[C@@H]1CCCN(c2cncc(Nc3nccc(N4CCC[C@@H](CC(=O)O)C4)n3)n2)C1` [Example 128, 2-((S)-1-(2-((6-((R)-3-(2-ethoxyphenoxy)piperidin-1-yl)pyrazin-2-yl)amino)pyrimidin-4-yl)piperidin-3-yl)acetic Acid], the IC50 came to 160 nM.

Consider `CCOc1ccccc1O[C@@H]1CCCN(c2cncc(Nc3nccc(N4CCC[C@@H](/C=C/C(=O)O)C4)n3)n2)C1` [Example 129, (E)-3-((S)-1-(2-((6-((R)-3-(2-ethoxyphenoxy)piperidin-1-yl)pyrazin-2-yl)amino)pyrimidin-4-yl)piperidin-3-yl)acrylic Acid], for which the IC50 came to 800 nM.

Turning to `CCOc1ccccc1O[C@@H]1CCCN(c2cncc(Nc3nccc(N4CCC[C@@H](CCC(=O)O)C4)n3)n2)C1` [Example 130, 3-((S)-1-(2-((6-((R)-3-(2-ethoxyphenoxy)piperidin-1-yl)pyrazin-2-yl)amino)pyrimidin-4-yl)piperidin-3-yl)propanoic Acid], the IC50 was 2100 nM.

Turning to `CCOc1ccccc1O[C@@H]1CCCN(c2cncc(Nc3nccc(N4CCC[C@H](OCC(=O)O)C4)n3)n2)C1` [Example 131, 2-(((S)-1-(2-((6-((R)-3-(2-ethoxyphenoxy)piperidin-1-yl)pyrazin-2-yl)amino)pyrimidin-4-yl)piperidin-3-yl)oxy)acetic Acid], the IC50 is over 10000 nM.
